Measured values taken from patent publication US20130345420A9, “SELECTIVE INHIBITORS OF EXCITATORY AMINO ACID TRANSPORTER SUBTYPE 1 (EAAT1/GLAST)” (priority 2008, published 2013).
pIC50: −log10 of the molar value. Where two headings read alike, the source gives them in different places.

What was measured:
human EAAT1 = biological target: T1, human EAAT1 (Homo sapiens, UniProt P43003); assay: [3H]-D-Aspartic acid uptake assay, HEK293 cells stably expressing EAAT1; assay type: cell-based; details: for Inhibition of [3H]-D-Asp uptake, EAAT1, pIC50±S.E.M. / IC50: value in brackets; for IC50: read-out: Inhibition of [3H]-D-Asp uptake, EAAT1, pIC50±S.E.M. (converted)
T1 construct: expressed in transfected cells
T1 sequence (P43003 whole entry): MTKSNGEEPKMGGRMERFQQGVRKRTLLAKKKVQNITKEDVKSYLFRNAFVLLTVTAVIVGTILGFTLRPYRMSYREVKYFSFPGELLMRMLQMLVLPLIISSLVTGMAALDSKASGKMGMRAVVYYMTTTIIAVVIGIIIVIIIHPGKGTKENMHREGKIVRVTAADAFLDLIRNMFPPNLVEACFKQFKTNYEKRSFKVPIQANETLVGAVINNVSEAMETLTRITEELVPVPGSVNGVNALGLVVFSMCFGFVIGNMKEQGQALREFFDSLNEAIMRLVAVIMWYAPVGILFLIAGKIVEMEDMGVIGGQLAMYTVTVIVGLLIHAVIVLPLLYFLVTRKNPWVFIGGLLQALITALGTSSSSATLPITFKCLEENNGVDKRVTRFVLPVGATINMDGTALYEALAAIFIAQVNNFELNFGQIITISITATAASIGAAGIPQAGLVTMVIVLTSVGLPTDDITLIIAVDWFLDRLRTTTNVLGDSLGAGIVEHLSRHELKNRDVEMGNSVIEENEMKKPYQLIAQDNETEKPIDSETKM
Method: (§1) Table 1: Inhibition of [^3H]-D-Asp uptake in HEK293 cells stably expressing human EAAT1, EAAT2 and EAAT3. The IC50 values are given in μM with pIC50±S.E.M. values in brackets (n=3-7).
(§2) The functional properties of the novel compounds of the invention were assessed in a [^3H]-D-Aspartic acid uptake assay using HEK293 cell lines stably expressing the human EAAT subtypes EAAT1, EAAT2 and EAAT3. Furthermore, some of the compounds were assayed at human EAAT1, EAAT2 and EAAT3 and the rat orthologs GLAST, GLT-1 and EAAC-1 in the FLIPR® Membrane Potential (FMP) Blue assay (Molecular Devices, Crawley, UK).
(§3) FIG. I depicts a graph showing the concentration-inhibition curves for 1o at the human EAAT subtype EAAT1 stably expressed in HEK293 cell lines in a [^3H]-D-aspartic acid uptake assay. The cells (grown in wells of 96-well plates) were washed twice with assay buffer, and incubated with buffer supplemented with 30 nM [^3H]-D-aspartic acid in the absence (control) or presence of increasing concentrations of 1o at […] for 7 min. The assay mixtures were then quickly removed from the wells, and the cells were washed with 3 times with ice-cold buffer, scintillation fluid was added to each well, and the plate was counted in a TopCounter.

human EAAT3 = biological target: T2, human EAAT3 (Homo sapiens, UniProt P43005); assay: [3H]-D-Aspartic acid uptake assay, HEK293 cells stably expressing EAAT3; assay type: cell-based; details: n=3-7, read-out: Inhibition of [3H]-D-Asp uptake, EAAT3, IC50
T2 construct: expressed in transfected cells
T2 sequence (P43005 1-524): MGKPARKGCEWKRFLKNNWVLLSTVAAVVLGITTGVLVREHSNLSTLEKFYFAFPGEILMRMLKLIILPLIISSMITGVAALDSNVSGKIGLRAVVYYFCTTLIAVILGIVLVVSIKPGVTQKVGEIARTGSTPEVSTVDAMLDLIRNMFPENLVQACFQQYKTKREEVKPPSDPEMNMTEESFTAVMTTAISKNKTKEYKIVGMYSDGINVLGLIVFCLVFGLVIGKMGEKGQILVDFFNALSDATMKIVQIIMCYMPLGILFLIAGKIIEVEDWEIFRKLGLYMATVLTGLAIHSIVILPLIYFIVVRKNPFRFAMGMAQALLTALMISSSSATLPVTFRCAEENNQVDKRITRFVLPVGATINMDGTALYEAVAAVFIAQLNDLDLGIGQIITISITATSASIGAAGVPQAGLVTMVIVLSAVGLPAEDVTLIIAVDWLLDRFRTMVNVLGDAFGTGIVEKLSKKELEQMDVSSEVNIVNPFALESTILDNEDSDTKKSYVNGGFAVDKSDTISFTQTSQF
Method: as §1, §2, §3

human EAAT2 = biological target: T3, human EAAT2 (Homo sapiens, UniProt P43004); assay: [3H]-D-Aspartic acid uptake assay, HEK293 cells stably expressing EAAT2; assay type: cell-based; details: n=3-7, read-out: Inhibition of [3H]-D-Asp uptake, EAAT2, IC50
T3 construct: expressed in transfected cells
T3 sequence (P43004 whole entry): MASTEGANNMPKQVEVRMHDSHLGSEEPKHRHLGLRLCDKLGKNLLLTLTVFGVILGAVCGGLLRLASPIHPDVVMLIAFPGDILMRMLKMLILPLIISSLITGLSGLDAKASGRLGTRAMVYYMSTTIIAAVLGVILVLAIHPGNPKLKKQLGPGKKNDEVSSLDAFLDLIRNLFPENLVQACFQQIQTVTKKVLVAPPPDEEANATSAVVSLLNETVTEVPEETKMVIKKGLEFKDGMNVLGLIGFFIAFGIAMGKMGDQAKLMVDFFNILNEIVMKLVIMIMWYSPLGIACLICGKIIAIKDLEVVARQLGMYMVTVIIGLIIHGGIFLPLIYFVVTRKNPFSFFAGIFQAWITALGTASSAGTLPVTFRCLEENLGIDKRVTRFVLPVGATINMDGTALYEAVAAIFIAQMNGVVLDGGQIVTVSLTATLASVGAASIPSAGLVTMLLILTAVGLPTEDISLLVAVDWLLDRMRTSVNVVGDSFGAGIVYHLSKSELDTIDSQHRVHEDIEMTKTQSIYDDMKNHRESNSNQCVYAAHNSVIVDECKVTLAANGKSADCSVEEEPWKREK
Method: as §1, §2, §3

Solubility in solvents = assay type: physicochemical; details: aq buffer solutions (pH=7.4), DMSO and CDCl3
[1] = HEK293 cells stably expressing human EAAT1, n=3-7, read-out: Inhibition of [3H]-D-Asp uptake, EAAT1, IC50
[2] = HEK293 cells stably expressing human EAAT1, n=3-7

## COc1ccc(C2C(C#N)=C(N)OC3=C2C(=O)CC(c2ccccc2)C3)cc1 (stereo not shown) [1c, 2-Amino-4-(4-methoxyphenyl)-7-(phenyl)-5-oxo-5,6,7,8-tetrahydro-4H-chromene-3-carbonitrile]
Human EAAT1; [1]
  pIC50: 5.64
Human EAAT1; [2]
  Inhibition of [3H]-D-Asp uptake, EAAT1, pIC50±S.E.M.: 5.64 ± 0.05

## COc1cccc(C2C(C#N)=C(N)OC3=C2C(=O)CC(c2ccccc2)C3)c1OC (stereo not shown) [1f]
Human EAAT1; [2]
  IC50: ~50.1 µM

## COc1ccc(C2C(C#N)=C(N)OC3=C2C(=O)CC(c2ccc(OC)c(OC)c2)C3)cc1 (stereo not shown) [1n, 2-Amino-4-(4-methoxyphenyl)-7-(3,4-dimethoxyphenyl)-5-oxo-5,6,7,8-tetrahydro-4H-chromene-3-carbonitrile]
Human EAAT3
  pIC50: < 3.52
Human EAAT1; [1]
  pIC50: 4.96
Human EAAT1; [2]
  Inhibition of [3H]-D-Asp uptake, EAAT1, pIC50±S.E.M.: 4.97 ± 0.05
other
  melting point: 159.9 to 161.4 °C
Human EAAT2
  pIC50: < 3.52

## COc1ccc(C2C(C#N)=C(N)OC3=C2C(=O)CC(c2ccco2)C3)cc1OC(=O)N1CCOCC1 (stereo not shown) [1q]
Human EAAT1
  pIC50: ~4.00

## N#CC1=C(N)OC2=C(C(=O)CC(c3ccccc3)C2)C1c1cccnc1 (stereo not shown) [1s]
Human EAAT1; [1]
  pIC50: ~4.52

## N#CC1=C(N)OC2=C(C(=O)CC(c3ccccc3)C2)C1Cc1ccccc1 (stereo not shown) [1u]
Human EAAT1; [1]
  pIC50: ~4.52

## CC1C(C#N)=C(N)OC2=C1C(=O)CC(c1cccc3ccccc13)C2 (stereo not shown) [1w, 2-Amino-4-methyl-7-(naphthalene-1-yl)-5-oxo-5,6,7,8-tetrahydro-4H-chromene-3-carbo-nitrile]
Solubility in solvents
  Solubility in comparison with 1o: significantly more soluble
Human EAAT3
  pIC50: < 3.52
Human EAAT1; [1]
  pIC50: 6.24
Human EAAT1; [2]
  IC50: 0.562 µM
Human EAAT2
  pIC50: < 3.52
